Experimental data as given in patent publication US20070128217A1 (priority 2003, published 2007).

How the values were obtained:
[1] = test system: control sera (pooled serum of ten healthy LUMC hospital workers; commercial negative donor pooled serum from the Dutch bloodbank); format: binding, human; design: Binding of Control serum LUMC to linear peptides / Binding of Control serum Blood-bank to linear peptides / Binding of Control serum LUMC to looped peptides / Binding of Control Serum Blood-Bank to Looped peptides / Binding of Control serum LUMC to linear peptides of the protein M of SARS-CoV Urbani / Binding of Control serum Blood-bank to linear peptides of the protein M of SARS-CoV Urbani / Binding of Control serum LUMC to looped peptides of the protein M of SARS-CoV Urbani / Binding of Control Serum Blood-Bank to Looped peptides of the protein M of SARS-CoV Urbani: unit not given here
[2] = test system: rabbit serum obtained by immunizing a rabbit with the SARS-CoV strain Frankfurt 1; format: binding; design: Binding of a rabbit serum to linear peptides / Binding of a rabbit serum to looped peptides / Rabbit serum linear peptides / Rabbit serum looped peptides / Binding of a rabbit serum to linear peptides of protein N of SARS-CoV Urbani (Rabbit serum linear peptides) / Binding of a rabbit serum to looped/cyclic peptides of protein N of SARS-CoV Urbani (Rabbit serum looped peptides): unit not given here
[3] = test system: antibodies in sera from SARS patients (sera 1a, 1b, 2, 6, 37, 62, London, SARS-yellow, SARS-green); format: binding, human; design: Binding of serum 6 to linear peptides of protein X1 of SARS-CoV Urbani / Binding of serum 37 to linear peptides of protein X1 of SARS-CoV Urbani / Binding of serum 6 to looped/cyclic peptide (PEPSCAN-ELISA) / Binding of serum 37 to looped/cyclic peptide (PEPSCAN-ELISA) / Binding of serum 37 to looped/cyclic peptides of protein X1 of SARS-CoV Urbani / Binding of serum 6 to linear peptides of protein X2 / Binding of serum 37 to linear peptides of protein X2 / Binding of serum 37 to looped/cyclic peptides of protein X2 of SARS-CoV Urbani / Binding of serum 6 to linear peptides of protein M of SARS-CoV Urbani / Binding of serum 37 to linear peptides of protein M of SARS-CoV Urbani / Binding of serum 6 to looped/cyclic peptides of protein M of SARS-CoV Urbani / Binding of serum 37 to looped/cyclic peptides of protein M of SARS-CoV Urbani / Binding of serum 6 to linear peptides of protein X3 of SARS-CoV Urbani / Binding of serum 37 to linear peptides of protein X3 of SARS-CoV Urbani / Binding of serum 37 to looped/cyclic peptides of protein X3 of SARS-CoV Urbani / Binding of serum 6 to linear peptides of protein X4 of SARS-CoV Urbani / Binding of serum 37 to linear peptides of protein X4 of SARS-CoV Urbani / Binding of serum 37 to looped/cyclic peptides of protein X4 of SARS-CoV Urbani / Binding of serum 6 to linear peptides of protein X5 of SARS-CoV Urbani / Binding of serum 37 to linear peptides of protein X5 of SARS-CoV Urbani / Binding of serum 37 to looped/cyclic peptides of protein X5 of SARS-CoV Urbani / Binding of serum 6 to linear peptides of protein N of SARS-CoV Urbani / Binding of serum 37 to linear peptides of protein N of SARS-CoV Urbani / Binding of serum 6 to linear peptide (PEPSCAN-ELISA) / Binding of serum 1a to looped/cyclic peptides of protein N of SARS-CoV Urbani / Binding of serum 1b to looped/cyclic peptides of protein N of SARS-CoV Urbani / Binding of serum 2 to looped/cyclic peptides of protein N of SARS-CoV Urbani / Binding of serum 6 to looped/cyclic peptides of protein N of SARS-CoV Urbani / Binding of serum 37 to looped/cyclic peptides of protein N of SARS-CoV Urbani / Binding of serum 62 to looped/cyclic peptides of protein N of SARS-CoV Urbani / Binding of serum London to looped/cyclic peptides of protein N of SARS-CoV Urbani / Binding of serum SARS-green to looped/cyclic peptides of protein N of SARS-CoV Urbani: unit not given here

Sequence: YRIGNYKLNTDHAGS
- Binding of Control Serum Blood-Bank to Looped peptides of the protein M of SARS-CoV Urbani [1]: 0.6
- Binding of Control serum Blood-bank to linear peptides of the protein M of SARS-CoV Urbani [1]: 0.6
- Binding of Control serum LUMC to linear peptides of the protein M of SARS-CoV Urbani [1]: 0.3
- Binding of Control serum LUMC to looped peptides of the protein M of SARS-CoV Urbani [1]: 0.6
- Rabbit serum linear peptides [2]: 0.6
- Rabbit serum looped peptides [2]: 0.1
- Binding of serum 1a to linear peptides of protein M of SARS-CoV Urbani [3]: 0.7
- Binding of serum 1a to looped/cyclic peptides of protein M of SARS-CoV Urbani [3]: 0.8
- Binding of serum 1b to linear peptides of protein M of SARS-CoV Urbani [3]: 0.6
- Binding of serum 1b to looped/cyclic peptides of protein M of SARS-CoV Urbani [3]: 0.6
- Binding of serum 2 to linear peptides of protein M of SARS-CoV Urbani [3]: 0.5
- Binding of serum 2 to looped/cyclic peptides of protein M of SARS-CoV Urbani [3]: 0.5
- Binding of serum 6 to linear peptides of protein M of SARS-CoV Urbani [3]: 0.2
- Binding of serum 6 to looped/cyclic peptides of protein M of SARS-CoV Urbani [3]: 0.8
- Binding of serum 37 to linear peptides of protein M of SARS-CoV Urbani [3]: 0.8
- Binding of serum 37 to looped/cyclic peptides of protein M of SARS-CoV Urbani [3]: 0.7
- Binding of serum 62 to linear peptides of protein M of SARS-CoV Urbani [3]: 0.7
- Binding of serum 62 to looped/cyclic peptides of protein M of SARS-CoV Urbani [3]: 0.6
- Binding of serum London to linear peptides of protein M of SARS-CoV Urbani [3]: 0.5
- Binding of serum London to looped/cyclic peptides of protein M of SARS-CoV Urbani [3]: 0.4
- Binding of serum SARS-green to linear peptides of protein M of SARS-CoV Urbani [3]: 0.2
- Binding of serum SARS-green to looped/cyclic peptides of protein M of SARS-CoV Urbani [3]: 0.3
- Binding of serum SARS-yellow to linear peptides of protein M of SARS-CoV Urbani [3]: 0.1
- Binding of serum SARS-yellow to looped/cyclic peptides of protein M of SARS-CoV Urbani [3]: 0.6

Sequence: LRGTIVTRPLMESEL
- Binding of Control Serum Blood-Bank to Looped peptides of the protein M of SARS-CoV Urbani [1]: 0.7
- Binding of Control serum Blood-bank to linear peptides of the protein M of SARS-CoV Urbani [1]: 0.5
- Binding of Control serum LUMC to linear peptides of the protein M of SARS-CoV Urbani [1]: 0.5
- Binding of Control serum LUMC to looped peptides of the protein M of SARS-CoV Urbani [1]: 0.7
- Rabbit serum linear peptides [2]: 0.0
- Rabbit serum looped peptides [2]: 0.5
- Binding of serum 1a to linear peptides of protein M of SARS-CoV Urbani [3]: 0.7
- Binding of serum 1b to linear peptides of protein M of SARS-CoV Urbani [3]: 0.5
- Binding of serum 2 to linear peptides of protein M of SARS-CoV Urbani [3]: 0.3
- Binding of serum 6 to linear peptides of protein M of SARS-CoV Urbani [3]: 0.3
- Binding of serum 37 to linear peptides of protein M of SARS-CoV Urbani [3]: 0.5
- Binding of serum 62 to linear peptides of protein M of SARS-CoV Urbani [3]: 0.4
- Binding of serum London to linear peptides of protein M of SARS-CoV Urbani [3]: 0.3
- Binding of serum SARS-green to linear peptides of protein M of SARS-CoV Urbani [3]: 0.4
- Binding of serum SARS-yellow to linear peptides of protein M of SARS-CoV Urbani [3]: 1.0
- Recognition of the peptide by sera of SARS-CoV infected individuals, and form (linear, looped/cyclic) in which it is recognized [3]: recognized in looped/cyclic form

Sequence: LLLLFVTIYSHLLLV
- Binding of Control Serum Blood-Bank to Looped peptides [1]: 0.6
- Binding of Control serum Blood-bank to linear peptides [1]: 0.5
- Binding of Control serum LUMC to linear peptides [1]: 0.6
- Binding of Control serum LUMC to looped peptides [1]: 0.5
- Binding of a rabbit serum to linear peptides [2]: 0.1
- Binding of a rabbit serum to looped peptides [2]: 0.5
- Binding of serum 1a to linear peptides of protein X1 of SARS-CoV Urbani [3]: 0.7
- Binding of serum 1a to looped/cyclic peptide (PEPSCAN-ELISA) [3]: 0.5
- Binding of serum 1b to linear peptides of protein X1 of SARS-CoV Urbani [3]: 0.5
- Binding of serum 1b to looped/cyclic peptide (PEPSCAN-ELISA) [3]: 0.3
- Binding of serum 2 to linear peptides of protein X1 of SARS-CoV Urbani [3]: 0.8
- Binding of serum 2 to looped/cyclic peptide (PEPSCAN-ELISA) [3]: 0.5
- Binding of serum 6 to linear peptides of protein X1 of SARS-CoV Urbani [3]: 0.4
- Binding of serum 6 to looped/cyclic peptide (PEPSCAN-ELISA) [3]: 0.3
- Binding of serum 37 to linear peptides of protein X1 of SARS-CoV Urbani [3]: 0.5
- Binding of serum 37 to looped/cyclic peptide (PEPSCAN-ELISA) [3]: 0.6
- Binding of serum 62 to linear peptides of protein X1 of SARS-CoV Urbani [3]: 0.4
- Binding of serum 62 to looped/cyclic peptide (PEPSCAN-ELISA) [3]: 0.6
- Binding of serum London to linear peptides of protein X1 of SARS-CoV Urbani [3]: 0.2
- Binding of serum London to looped/cyclic peptide (PEPSCAN-ELISA) [3]: 0.2
- Binding of serum SARS-green to linear peptides of protein X1 of SARS-CoV Urbani [3]: 0.3
- Binding of serum SARS-green to looped/cyclic peptide (PEPSCAN-ELISA) [3]: 0.2
- Binding of serum SARS-yellow to linear peptides of protein X1 of SARS-CoV Urbani [3]: 0.3
- Binding of serum SARS-yellow to looped/cyclic peptide (PEPSCAN-ELISA) [3]: 0.5
